Measurements reported in article PMC10784415 (Developmental dynamics : an official publication of the …, 2023).

Assay: Toxicokinetics of infigratinib in juvenile rat plasma after oral gavage
Assay type: in vivo, Crl:WI(Han) rat
Conditions: for RAUC: AUC vs first dosing day; for AUC(0-t): female, Crl:WI(Han), rat, plasma, po, 0.1 mg/kg/day
[1] = Female rats, 0.1 mg/kg/day oral, PND 7
[2] = Female rats, 0.1 mg/kg/day oral, PND 12
[3] = Female rats, 0.1 mg/kg/day oral, PND 17
[4] = Female rats, 0.1 mg/kg/day oral, PND 23
[5] = Female rats, 0.1 mg/kg/day oral, PND 35
[6] = Female rats, 0.3 mg/kg/day oral, PND 7
[7] = Female rats, 0.3 mg/kg/day oral, PND 12
[8] = Female rats, 0.3 mg/kg/day oral, PND 17
[9] = Female rats, 0.3 mg/kg/day oral, PND 23
[10] = Female rats, 0.3 mg/kg/day oral, PND 35
[11] = Female rats, 1.0 mg/kg/day oral, PND 7
[12] = Female rats, 1.0 mg/kg/day oral, PND 12
[13] = Female rats, 1.0 mg/kg/day oral, PND 17
[14] = Female rats, 1.0 mg/kg/day oral, PND 23
[15] = Female rats, 1.0 mg/kg/day oral, PND 35
[16] = Male rats, 0.1 mg/kg/day oral, PND 7
[17] = Male rats, 0.1 mg/kg/day oral, PND 12
[18] = Male rats, 0.1 mg/kg/day oral, PND 17
[19] = Male rats, 0.1 mg/kg/day oral, PND 23
[20] = Male rats, 0.1 mg/kg/day oral, PND 35
[21] = Male rats, 0.3 mg/kg/day oral, PND 7
[22] = Male rats, 0.3 mg/kg/day oral, PND 12
[23] = Male rats, 0.3 mg/kg/day oral, PND 17
[24] = Male rats, 0.3 mg/kg/day oral, PND 23
[25] = Male rats, 0.3 mg/kg/day oral, PND 35
[26] = Male rats, 1.0 mg/kg/day oral, PND 7
[27] = Male rats, 1.0 mg/kg/day oral, PND 12
[28] = Male rats, 1.0 mg/kg/day oral, PND 17
[29] = Male rats, 1.0 mg/kg/day oral, PND 23
[30] = Male rats, 1.0 mg/kg/day oral, PND 35

## CCN1CCN(c2ccc(Nc3cc(N(C)C(=O)Nc4c(Cl)c(OC)cc(OC)c4Cl)ncn3)cc2)CC1 [infigratinib, 3-(2,6-Dichloro-3,5-dimethoxy-phenyl)-1-{6-[4-(4-ethyl-piperazin-1-yl)-phenylamino]-pyrimidin-4-yl}-1-methyl-urea]
[1]
  Cmax/D: 41.8 (ng/mL)/(mg/kg/day)
  Tlast: 24 h
  AUC(0-t): 43 ng·h/mL
[2]
  Cmax/D: 34.0 (ng/mL)/(mg/kg/day)
  Tlast: 24 h
  RAUC: 0.941 ratio
  AUC(0-t): 40.5 ng·h/mL
[3]
  Cmax/D: 90.6 (ng/mL)/(mg/kg/day)
  Tlast: 24 h
  RAUC: 0.839 ratio
[4]
  Cmax/D: 7.8 (ng/mL)/(mg/kg/day)
  Tlast: 12 h
  RAUC: 0.108 ratio
[5]
  Cmax/D: 3.0 (ng/mL)/(mg/kg/day)
  Tlast: 7 h
  RAUC: 0.0325 ratio
[6]
  Cmax/D: 64.7 (ng/mL)/(mg/kg/day)
  Tlast: 24 h
[7]
  Cmax/D: 49.7 (ng/mL)/(mg/kg/day)
  Tlast: 24 h
  RAUC: 0.751 ratio
[8]
  Cmax/D: 60.2 (ng/mL)/(mg/kg/day)
  Tlast: 24 h
  RAUC: 0.548 ratio
[9]
  Cmax/D: 7.49 (ng/mL)/(mg/kg/day)
  Tlast: 24 h
  RAUC: 0.103 ratio
[10]
  Cmax/D: 2.2 (ng/mL)/(mg/kg/day)
  Tlast: 12 h
  RAUC: 0.0249 ratio
[11]
  Cmax/D: 53.2 (ng/mL)/(mg/kg/day)
  Tlast: 24 h
[12]
  Cmax/D: 56.6 (ng/mL)/(mg/kg/day)
  Tlast: 24 h
  RAUC: 1.15 ratio
[13]
  Cmax/D: 41.2 (ng/mL)/(mg/kg/day)
  Tlast: 24 h
  RAUC: 0.974 ratio
[14]
  Cmax/D: 10.4 (ng/mL)/(mg/kg/day)
  Tlast: 24 h
  RAUC: 0.141 ratio
[15]
  Cmax/D: 4.04 (ng/mL)/(mg/kg/day)
  Tlast: 12 h
  RAUC: 0.0566 ratio
[16]
  Cmax/D: 32.1 (ng/mL)/(mg/kg/day)
  Tlast: 24 h
[17]
  Cmax/D: 33.2 (ng/mL)/(mg/kg/day)
  Tlast: 24 h
  RAUC: 1.24 ratio
[18]
  Cmax/D: 29.9 (ng/mL)/(mg/kg/day)
  Tlast: 24 h
  RAUC: 0.882 ratio
[19]
  Cmax/D: 5.77 (ng/mL)/(mg/kg/day)
  Tlast: 12 h
  RAUC: 0.12 ratio
[20]
  Cmax/D: 3.07 (ng/mL)/(mg/kg/day)
  Tlast: 12 h
  RAUC: 0.0613 ratio
[21]
  Cmax/D: 38.8 (ng/mL)/(mg/kg/day)
  Tlast: 24 h
[22]
  Cmax/D: 47.1 (ng/mL)/(mg/kg/day)
  Tlast: 24 h
  RAUC: 1.3 ratio
[23]
  Cmax/D: 27.1 (ng/mL)/(mg/kg/day)
  Tlast: 24 h
  RAUC: 0.898 ratio
[24]
  Cmax/D: 7.1 (ng/mL)/(mg/kg/day)
  Tlast: 24 h
  RAUC: 0.187 ratio
[25]
  Cmax/D: 3.08 (ng/mL)/(mg/kg/day)
  Tlast: 12 h
  RAUC: 0.0524 ratio
[26]
  Cmax/D: 37.3 (ng/mL)/(mg/kg/day)
  Tlast: 24 h
[27]
  Cmax/D: 68.8 (ng/mL)/(mg/kg/day)
  Tlast: 24 h
  RAUC: 1.59 ratio
[28]
  Cmax/D: 34.1 (ng/mL)/(mg/kg/day)
  Tlast: 24 h
  RAUC: 0.944 ratio
[29]
  Cmax/D: 11.2 (ng/mL)/(mg/kg/day)
  Tlast: 24 h
  RAUC: 0.233 ratio
[30]
  Cmax/D: 2.98 (ng/mL)/(mg/kg/day)
  Tlast: 12 h
  RAUC: 0.0648 ratio
